According to patent US20230219904A1 (SYNGENTA CROP PROTECTION AG, priority 2020, published 2023):

Columns and labels:
Assay type in all cases: in vivo
Conditions in all cases: evaluated after 13 days
[1] = system: Abutilon theophrasti (ABUTH); assay: Pre-emergence herbicidal glasshouse test (Table B1)
How it was run: (§1)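 Application rate was 500 g/h unless otherwise indicated, as a spray prepared from acetone/water (50:50) containing 0.5% Tween 20. Treatment followed one day (pre-emergence) or 8 days (post-emergence) of glasshouse growth, and percentage plant damage was assessed 13 days later on a 1–5 scale.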

[2] = system: Amaranthus retoflexus (AMARE); assay: as above
How it was run: as §1

[3] = system: Echinochloa crus-galh (ECHCG); assay: as above
How it was run: as §1

[4] = system: Ipomoea hederacea (IPOHE); assay: as above
How it was run: as §1

[5] = system: Setaria faberi (SETFA); assay: as above
How it was run: as §1

[6] = system: Abutilon theophrasti (ABUTH); assay: Post-emergence herbicidal glasshouse test (Table B1)
How it was run: as §1

[7] = system: Amaranthus retoflexus (AMARE); assay: as above
How it was run: as §1

[8] = system: Echinochloa crus-galh (ECHCG); assay: as above
How it was run: as §1

[9] = system: Ipomoea hederacea (IPOHE); assay: as above
How it was run: as §1

[10] = system: Setaria faberi (SETFA); assay: as above
How it was run: as §1

| Structure (SMILES) | PRE Application ABUTH, percentage damage on five-point scale ([1]; applied at 125 g/ha) | PRE Application AMARE, percentage damage on five-point scale ([2]; applied at 125 g/ha) | PRE Application ECHCG, percentage damage on five-point scale ([3]; applied at 125 g/ha) | PRE Application IPOHE, percentage damage on five-point scale ([4]; applied at 125 g/ha) | PRE Application SETFA, percentage damage on five-point scale ([5]; applied at 125 g/ha) | POST Application ABUTH, percentage damage on five-point scale ([6]; applied at 125 g/ha) | POST Application AMARE, percentage damage on five-point scale ([7]; applied at 125 g/ha) | POST Application ECHCG, percentage damage on five-point scale ([8]; applied at 125 g/ha) | POST Application IPOHE, percentage damage on five-point scale ([9]; applied at 125 g/ha) | POST Application SETFA, percentage damage on five-point scale ([10]; applied at 125 g/ha) | PRE Application ABUTH, percentage damage on five-point scale ([1]; applied at 500 g/h) | PRE Application AMARE, percentage damage on five-point scale ([2]; applied at 500 g/h) | PRE Application ECHCG, percentage damage on five-point scale ([3]; applied at 500 g/h) | PRE Application IPOHE, percentage damage on five-point scale ([4]; applied) | PRE Application SETFA, percentage damage on five-point scale ([5]; applied at 500 g/h) | POST Application ABUTH, percentage damage on five-point scale ([6]; applied at 500 g/h) | POST Application AMARE, percentage damage on five-point scale ([7]; applied at 500 g/h) | POST Application ECHCG, percentage damage on five-point scale ([8]; applied at 500 g/h) | POST Application IPOHE, percentage damage on five-point scale ([9]; applied at 500 g/h) | POST Application SETFA, percentage damage on five-point scale ([10]; applied at 500 g/h) |
| --- | --- | --- | --- | --- | --- | --- | --- | --- | --- | --- | --- | --- | --- | --- | --- | --- | --- | --- | --- | --- |
| CCN(C(=O)C(C)F)c1c(OC(F)F)ccc(C(=O)Nc2nnnn2C)c1Cl (stereo not shown) [Compound 1.026] | 5 (5=80-100%) | 5 (5=80-100%) | 5 (5=80-100%) | 4 (4=60-79%) | 5 (5=80-100%) | 4 (4=60-79%) | 4 (4=60-79%) | 5 (5=80-100%) | 4 (4=60-79%) | 4 (4=60-79%) |  |  |  |  |  |  |  |  |  |  |
| Cn1nnnc1NC(=O)c1ccc(OC(F)F)c(NC(=O)c2ccccn2)c1Cl [Compound 1.108] | 4 (4=60-79%) | 5 (5=80-100%) | 2 (2=20-39%) | 2 (2=20-39%) | 3 (3=40-59%) | 4 (4=60-79%) | 5 (5=80-100%) | 5 (5=80-100%) | 4 (4=60-79%) | 4 (4=60-79%) |  |  |  |  |  |  |  |  |  |  |
| CCn1nnnc1NC(=O)c1ccc(OC(F)(F)F)c(NC(C)=O)c1Cl [Compound 1.015] |  |  |  |  |  |  |  |  |  |  | 5 (5=80-100%) | 5 (5=80-100%) | 4 (4=60-79%) | 1 (1=0-19%) | 2 (2=20-39%) | 5 (5=80-100%) | 5 (5=80-100%) | 5 (5=80-100%) | 5 (5=80-100%) | 5 (5=80-100%) |
| CCC(=O)N(C)c1c(OC(F)F)ccc(C(=O)Nc2nnnn2C)c1Cl [Compound 1.024] | 5 (5=80-100%) | 5 (5=80-100%) | 4 (4=60-79%) | 4 (4=60-79%) | 4 (4=60-79%) | 4 (4=60-79%) | 3 (3=40-59%) | 4 (4=60-79%) | 4 (4=60-79%) | 4 (4=60-79%) |  |  |  |  |  |  |  |  |  |  |
| Cn1nnnc1NC(=O)c1ccc(OC(F)F)c(NC(=O)c2ccc(F)cc2)c1Cl [Compound 1.099] | 4 (4=60-79%) | 5 (5=80-100%) | 1 (1=0-19%) | 3 (3=40-59%) | 1 (1=0-19%) | 4 (4=60-79%) | 4 (4=60-79%) | 4 (4=60-79%) | 4 (4=60-79%) | 3 (3=40-59%) |  |  |  |  |  |  |  |  |  |  |
| CCC(=O)Nc1c(OC(F)(F)F)ccc(C(=O)Nc2nnnn2CC)c1Cl [Compound 1.119] |  |  |  |  |  |  |  |  |  |  | 5 (5=80-100%) | 5 (5=80-100%) | 5 (5=80-100%) | 4 (4=60-79%) | 2 (2=20-39%) | 5 (5=80-100%) | 5 (5=80-100%) | 5 (5=80-100%) | 5 (5=80-100%) | 5 (5=80-100%) |
| CC(=O)Nc1c(OC(F)(F)F)ccc(C(=O)Nc2nnc(C)o2)c1Cl [Compound 2.002] |  |  |  |  |  |  |  |  |  |  | 3 (3=40-59%) | 1 (1=0-19%) | 1 (1=0-19%) | 1 (1=0-19%) | 1 (1=0-19%) | 5 (5=80-100%) | 5 (5=80-100%) | 5 (5=80-100%) | 5 (5=80-100%) | 5 (5=80-100%) |
| Cc1cc(C(=O)Nc2c(OC(F)F)ccc(C(=O)Nc3nnnn3C)c2Cl)no1 [Compound 1.044] | 4 (4=60-79%) | 4 (4=60-79%) | 2 (2=20-39%) | 1 (1=0-19%) | 2 (2=20-39%) | 3 (3=40-59%) | 5 (5=80-100%) | 2 (2=20-39%) | 4 (4=60-79%) | 3 (3=40-59%) |  |  |  |  |  |  |  |  |  |  |
| Cn1nnnc1NC(=O)c1ccc(OC(F)(F)F)c(NC(=O)C2CC2(F)F)c1Cl (stereo not shown) [Compound 1.032] |  |  |  |  |  |  |  |  |  |  | 5 (5=80-100%) | 5 (5=80-100%) | 5 (5=80-100%) | 3 (3=40-59%) | 5 (5=80-100%) | 5 (5=80-100%) | 5 (5=80-100%) | 5 (5=80-100%) | 5 (5=80-100%) | 5 (5=80-100%) |
| CCC(CC)C(=O)Nc1c(OC(F)(F)F)ccc(C(=O)Nc2nnnn2CC)c1Cl [Compound 1.105] |  |  |  |  |  |  |  |  |  |  | 5 (5=80-100%) | 5 (5=80-100%) | 5 (5=80-100%) | 2 (2=20-39%) | 3 (3=40-59%) | 5 (5=80-100%) | 5 (5=80-100%) | 5 (5=80-100%) | 5 (5=80-100%) | 5 (5=80-100%) |
